Test results as given in ChEMBL document CHEMBL2203069, “Synthesis and structure-activity relationships of a novel series of pyrimidines as potent inhibitors of TBK1/IKKε kinases” (Bioorg Med Chem Lett, 2012).
The source made the active and inactive calls. No cut-off for these calls is given here.

Assays:
[1] = target: MAP kinase-interacting serine/threonine-protein kinase 1 (Homo sapiens, UniProt Q9BUB5); test: Inhibition of MNK1
[2] = target: T1, Serine/threonine-protein kinase TBK1 (Homo sapiens, UniProt Q9UHD2); test: Inhibition of TBK1 by radiometry
T1 sequence (Q9UHD2 whole entry): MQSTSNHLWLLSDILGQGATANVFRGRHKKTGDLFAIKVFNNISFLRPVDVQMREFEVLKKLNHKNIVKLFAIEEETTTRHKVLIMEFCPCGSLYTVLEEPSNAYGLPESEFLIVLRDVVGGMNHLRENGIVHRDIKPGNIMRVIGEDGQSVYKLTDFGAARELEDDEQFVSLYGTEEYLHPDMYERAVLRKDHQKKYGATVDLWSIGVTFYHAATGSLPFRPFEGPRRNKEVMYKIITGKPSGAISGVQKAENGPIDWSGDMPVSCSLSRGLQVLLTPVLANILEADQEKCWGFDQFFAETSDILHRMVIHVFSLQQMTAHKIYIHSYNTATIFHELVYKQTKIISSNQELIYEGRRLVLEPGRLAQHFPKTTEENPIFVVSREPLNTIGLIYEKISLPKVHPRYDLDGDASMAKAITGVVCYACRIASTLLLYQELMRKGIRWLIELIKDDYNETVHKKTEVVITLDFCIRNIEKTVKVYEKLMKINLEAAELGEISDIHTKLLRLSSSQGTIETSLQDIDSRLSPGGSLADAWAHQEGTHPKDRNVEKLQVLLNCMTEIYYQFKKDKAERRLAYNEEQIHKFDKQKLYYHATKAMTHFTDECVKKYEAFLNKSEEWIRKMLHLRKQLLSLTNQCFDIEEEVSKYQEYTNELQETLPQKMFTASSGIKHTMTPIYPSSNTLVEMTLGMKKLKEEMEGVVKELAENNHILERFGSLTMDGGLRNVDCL

[3] = Inhibition of VEGFR
[4] = target: T2, Serine/threonine-protein kinase TBK1 (Mus musculus, UniProt Q9WUN2); test: Inhibition of TBK1-mediated RANTES release in LPS-stimulated mouse RAW264.7 cells compound incubated for 30 mins prior LPS challenge measured after 6 hrs by ELISA; format: cell-based; conditions: read-out: IC50
T2 sequence (Q9WUN2 whole entry): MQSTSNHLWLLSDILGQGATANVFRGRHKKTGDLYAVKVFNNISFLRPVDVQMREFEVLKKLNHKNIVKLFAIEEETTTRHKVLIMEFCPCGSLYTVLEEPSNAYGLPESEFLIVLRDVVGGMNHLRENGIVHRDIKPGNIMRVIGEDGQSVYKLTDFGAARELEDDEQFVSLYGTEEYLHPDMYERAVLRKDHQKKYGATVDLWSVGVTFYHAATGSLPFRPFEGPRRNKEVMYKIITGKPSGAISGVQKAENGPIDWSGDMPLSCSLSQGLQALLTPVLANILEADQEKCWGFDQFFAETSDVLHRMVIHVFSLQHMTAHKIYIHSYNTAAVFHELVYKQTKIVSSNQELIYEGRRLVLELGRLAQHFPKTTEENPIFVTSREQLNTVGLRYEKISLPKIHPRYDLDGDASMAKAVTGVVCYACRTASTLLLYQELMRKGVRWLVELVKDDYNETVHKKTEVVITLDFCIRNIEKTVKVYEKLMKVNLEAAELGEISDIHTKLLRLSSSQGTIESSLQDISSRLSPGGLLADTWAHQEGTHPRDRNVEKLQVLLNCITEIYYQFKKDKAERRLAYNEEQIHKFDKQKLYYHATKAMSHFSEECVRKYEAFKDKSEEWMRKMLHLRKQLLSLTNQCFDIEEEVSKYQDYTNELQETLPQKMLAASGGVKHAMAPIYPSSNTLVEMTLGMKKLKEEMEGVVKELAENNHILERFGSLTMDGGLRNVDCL

[5] = target: T3, Inhibitor of nuclear factor kappa-B kinase subunit epsilon (Homo sapiens, UniProt Q14164); test: Inhibition of IKKepsilon
T3 sequence (Q14164 whole entry): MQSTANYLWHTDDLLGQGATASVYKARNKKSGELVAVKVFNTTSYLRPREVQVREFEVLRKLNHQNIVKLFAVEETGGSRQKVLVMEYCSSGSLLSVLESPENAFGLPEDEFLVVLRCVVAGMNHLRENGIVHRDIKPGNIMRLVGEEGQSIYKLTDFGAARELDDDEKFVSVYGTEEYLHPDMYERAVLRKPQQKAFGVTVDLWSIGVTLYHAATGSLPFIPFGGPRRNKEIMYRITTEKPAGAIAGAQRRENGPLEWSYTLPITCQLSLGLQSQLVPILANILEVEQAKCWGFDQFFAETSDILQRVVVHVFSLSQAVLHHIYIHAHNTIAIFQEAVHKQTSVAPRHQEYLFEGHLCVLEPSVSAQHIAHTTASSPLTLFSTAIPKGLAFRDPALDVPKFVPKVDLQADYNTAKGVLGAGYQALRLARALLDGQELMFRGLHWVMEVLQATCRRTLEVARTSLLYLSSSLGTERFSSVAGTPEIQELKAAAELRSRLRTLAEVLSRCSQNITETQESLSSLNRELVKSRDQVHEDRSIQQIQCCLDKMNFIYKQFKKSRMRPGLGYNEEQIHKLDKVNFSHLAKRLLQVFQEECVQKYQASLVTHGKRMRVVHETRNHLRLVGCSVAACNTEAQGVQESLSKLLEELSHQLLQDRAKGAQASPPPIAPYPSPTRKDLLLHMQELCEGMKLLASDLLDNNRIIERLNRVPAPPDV

[6] = target: Cyclin-dependent kinase 2 (Homo sapiens, UniProt P24941); test: Inhibition of CDK2
Aurora kinase B = Aurora kinase B (Homo sapiens, UniProt Q96GD4); test: Inhibition of Aurora B
Sequence of Aurora kinase B (Q96GD4 whole entry): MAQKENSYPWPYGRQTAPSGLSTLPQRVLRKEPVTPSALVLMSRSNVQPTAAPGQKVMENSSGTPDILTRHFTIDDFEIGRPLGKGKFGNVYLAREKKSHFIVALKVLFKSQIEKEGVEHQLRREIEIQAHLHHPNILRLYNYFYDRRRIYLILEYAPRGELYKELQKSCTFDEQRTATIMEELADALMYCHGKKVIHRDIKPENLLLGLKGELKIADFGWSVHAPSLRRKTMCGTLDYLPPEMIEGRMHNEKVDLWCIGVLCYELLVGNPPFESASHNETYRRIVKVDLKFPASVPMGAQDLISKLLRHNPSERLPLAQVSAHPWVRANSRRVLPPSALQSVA

[7] = Metabolic stability in human liver microsomes assessed as compound turnover after 40 mins; format: ADME, Microsome; conditions: read-out: Drug metabolism
[8] = Metabolic stability in mouse liver microsomes assessed as compound turnover after 30 mins; format: ADME, Microsome; conditions: read-out: Drug metabolism
[9] = Inhibition of AMPK
[10] = target: T4, Serine/threonine-protein kinase BRSK2 (Homo sapiens, UniProt Q8IWQ3); test: Inhibition of BRSK2
T4 sequence (Q8IWQ3 whole entry): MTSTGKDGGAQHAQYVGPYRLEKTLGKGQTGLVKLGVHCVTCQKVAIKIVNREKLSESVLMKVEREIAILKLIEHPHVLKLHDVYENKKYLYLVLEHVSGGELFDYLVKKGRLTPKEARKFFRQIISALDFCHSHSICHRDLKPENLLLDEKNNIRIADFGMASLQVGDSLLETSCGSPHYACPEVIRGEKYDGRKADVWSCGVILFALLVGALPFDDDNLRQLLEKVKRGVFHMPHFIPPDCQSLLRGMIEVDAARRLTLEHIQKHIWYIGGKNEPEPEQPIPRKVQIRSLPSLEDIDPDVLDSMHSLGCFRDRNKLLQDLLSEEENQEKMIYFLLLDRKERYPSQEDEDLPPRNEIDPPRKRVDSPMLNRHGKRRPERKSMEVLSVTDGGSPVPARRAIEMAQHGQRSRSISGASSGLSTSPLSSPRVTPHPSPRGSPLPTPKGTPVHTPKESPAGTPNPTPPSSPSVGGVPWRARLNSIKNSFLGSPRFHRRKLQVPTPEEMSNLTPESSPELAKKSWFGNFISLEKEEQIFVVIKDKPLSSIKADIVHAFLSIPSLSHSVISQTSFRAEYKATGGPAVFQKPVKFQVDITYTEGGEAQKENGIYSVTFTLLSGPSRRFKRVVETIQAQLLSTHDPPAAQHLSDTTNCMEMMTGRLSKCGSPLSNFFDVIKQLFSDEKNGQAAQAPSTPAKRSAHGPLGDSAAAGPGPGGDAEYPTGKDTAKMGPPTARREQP

[11] = Efflux ratio of permeability from basolateral to apical side to apical to basolateral side in human Caco2 cells; format: ADME, cell-based; conditions: Caco-2
[12] = target: MAP/microtubule affinity-regulating kinase 3 (Homo sapiens, UniProt P27448); test: Inhibition of MARK3
Sequence of MAP/microtubule affinity-regulating kinase 3 (P27448 whole entry): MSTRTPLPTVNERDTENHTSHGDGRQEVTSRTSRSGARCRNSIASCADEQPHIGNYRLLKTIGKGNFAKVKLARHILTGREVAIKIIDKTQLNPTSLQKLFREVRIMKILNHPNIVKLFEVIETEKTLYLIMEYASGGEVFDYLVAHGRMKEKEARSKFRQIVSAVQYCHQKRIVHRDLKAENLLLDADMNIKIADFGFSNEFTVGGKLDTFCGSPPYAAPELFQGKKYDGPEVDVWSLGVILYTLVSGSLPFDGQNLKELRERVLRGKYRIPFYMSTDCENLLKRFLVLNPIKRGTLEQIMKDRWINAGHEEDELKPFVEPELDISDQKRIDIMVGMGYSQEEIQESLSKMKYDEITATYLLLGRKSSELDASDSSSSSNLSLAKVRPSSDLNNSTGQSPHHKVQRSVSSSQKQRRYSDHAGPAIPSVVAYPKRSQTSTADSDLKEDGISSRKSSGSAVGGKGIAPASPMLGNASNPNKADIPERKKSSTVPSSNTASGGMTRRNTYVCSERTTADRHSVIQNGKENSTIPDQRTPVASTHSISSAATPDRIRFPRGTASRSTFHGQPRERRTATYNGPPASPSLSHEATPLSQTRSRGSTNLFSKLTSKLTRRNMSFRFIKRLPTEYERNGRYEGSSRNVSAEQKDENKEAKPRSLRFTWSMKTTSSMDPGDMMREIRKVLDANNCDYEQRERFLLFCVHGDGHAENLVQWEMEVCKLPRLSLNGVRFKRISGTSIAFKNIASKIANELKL

[13] = Permeability from apical to basolateral side of human Caco2 cells; format: ADME, cell-based; conditions: Caco-2, read-out: permeability
Mus musculus [14] = test: Toxicity in mouse at >= 20 mg/kg, ip; format: organism-based; set-up: dose 20 mg/kg, route intraperitoneal; conditions: in vivo
[15] = Clearance in CD-1 mouse at 1 mg/kg, iv; format: ADME, organism-based; set-up: dose 1 mg/kg, route intravenous; conditions: in vivo
[16] = Half life in CD-1 mouse at 1 mg/kg, iv; format: ADME, organism-based; set-up: dose 1 mg/kg, route intravenous; conditions: in vivo
Mus musculus [17] = test: Antiinflammatory activity in mouse assessed as inhibition of LPS-induced IFN-beta production at 15 mg/kg, ip administered 30 mins prior LPS challenge measured 1 hr post challenge by ELISA; format: functional, organism-based; set-up: dose 15 mg/kg
[18] = Volume of distribution in CD-1 mouse at 1 mg/kg, iv; format: ADME, organism-based; set-up: dose 1 mg/kg, route intravenous; conditions: in vivo
[19] = Half life in CD-1 mouse at 5 mg/kg, po; format: ADME, organism-based; set-up: dose 5 mg/kg, route oral; conditions: in vivo
[20] = Oral bioavailability in CD-1 mouse at 5 mg/kg; format: ADME, organism-based; conditions: in vivo

Sequence of MAP kinase-interacting serine/threonine-protein kinase 1 (Q9BUB5 whole entry): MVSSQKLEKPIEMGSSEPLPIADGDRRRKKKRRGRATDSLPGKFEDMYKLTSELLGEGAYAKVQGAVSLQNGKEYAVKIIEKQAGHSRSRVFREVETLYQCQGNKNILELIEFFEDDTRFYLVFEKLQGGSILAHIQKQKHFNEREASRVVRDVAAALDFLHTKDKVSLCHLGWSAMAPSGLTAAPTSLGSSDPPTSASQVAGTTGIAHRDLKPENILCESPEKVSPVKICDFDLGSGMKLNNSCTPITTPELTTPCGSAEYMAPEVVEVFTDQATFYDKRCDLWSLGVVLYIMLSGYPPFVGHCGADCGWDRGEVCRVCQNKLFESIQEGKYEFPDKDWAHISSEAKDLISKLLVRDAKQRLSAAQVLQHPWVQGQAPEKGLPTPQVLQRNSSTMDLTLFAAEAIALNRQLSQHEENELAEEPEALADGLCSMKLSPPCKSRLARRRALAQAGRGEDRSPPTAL

Row | Structure (SMILES) | IC50 [1] [nM] | IC50 [2] [nM] | IC50 [3] [nM] | IC50 [4] [nM] | IC50 [5] [nM] | IC50 [6] [nM] | IC50 (Aurora kinase B) [nM] | metabolised at 40 min [7] [%] | metabolised at 0.5 h [8] [%] | IC50 [9] [nM] | IC50 [10] [nM] | efflux ratio [11] | IC50 [12] [nM] | Papp A→B [13] [×10⁻⁶ cm/s] | other results
1 | O=C(NCCCNc1nc(Nc2ccc(N3CCOCC3)cc2)ncc1C1CC1)C1CCC1 | 19000 | 6 | 3600 | 58 | 30 | 630 | 700 | 18 | 53 | 550 | 1900 | 1 | 12 | 34 | –
2 | Cn1cc(Nc2ncc(C3CC3)c(NCCCNC(=O)C3CCC3)n2)cn1 | 20000 | 8 | 1400 | 170 | 100 | 110 | 190 | 0 | 21 | 1800 | 3700 | 8 | 20 | 7.4 | Activity (Mus musculus [14]): Toxic; clearance [15]: 79 mL/min/kg; half-life [16]: 27 min; inhibition (Mus musculus [17]): Active; Vd [18]: 1.79 L/kg; half-life [19]: 75 min; bioavailability [20]: 25%
